# Where two headings read alike, the source gives them in different places.
# Key:
# [1] = test system: P. falciparum 3D7 parasites; assay: P. falciparum growth inhibition assay, 2-cycle (120 h treatment), delayed-death screen and dose-response; format: cell-based, Plasmodium falciparum; conditions: for activity at 2 µg/mL: Plasmodium falciparum
# [2] = test system: P. falciparum 3D7 parasites; assay: P. falciparum growth inhibition assay, 1-cycle (72 h treatment), SYBR DNA staining (library screen at 2 μg/mL and dose-response); format: cell-based, Plasmodium falciparum; conditions: for activity at 2 µg/mL: Plasmodium falciparum
# [3] = test system: T. gondii RH strain (RH-Tub-eYFP) tachyzoites; assay: microbe, parasite or virus in culture; format: cell-based, Toxoplasma gondii; conditions: 72 h, 72 h; for percent parasite growth at 2 µg/mL: Toxoplasma gondii
# [4] = T. gondii, parasite screen 2 μg/mL, % growth, replicate 1, read-out: Tg_72h_%Growth_Rep1
# [5] = P. falciparum, 120 h, screen at 2 μg/mL, replicate 1
# [6] = P. falciparum, 120 h, screen at 2 μg/mL, replicate 2
# [7] = P. falciparum, 72 h, screen at 2 μg/mL, replicate 1
# [8] = P. falciparum, 72 h, screen at 2 μg/mL, replicate 2
# [9] = T. gondii, screen at 2 μg/mL, replicate 1
# [10] = T. gondii, screen at 2 μg/mL, replicate 2
# [11] = P. falciparum 3D7, 120 h, library screen at 2 μg/mL, % growth, replicate 1
# [12] = P. falciparum 3D7, 120 h, library screen at 2 μg/mL, % growth, replicate 2
# [13] = P. falciparum 3D7, 72 h, library screen at 2 μg/mL, % growth, replicate 1
# [14] = P. falciparum 3D7, 72 h, library screen at 2 μg/mL, % growth, replicate 2
# [15] = T. gondii RH, library screen at 2 μg/mL, % growth, replicate 1
# [16] = T. gondii RH, library screen at 2 μg/mL, % growth, replicate 2
structure (smiles),measurement,setting,value
CN(C)[C@@H]1C(O)=C(C(=O)NCN2CCCC2)C(=O)[C@@]2(O)C(O)=C3C(=O)c4c(O)cccc4[C@@](C)(O)[C@H]3C[C@@H]12 [Rolitetracycline],activity at 2 µg/mL,"[1]; 3D7, P. falciparum, 120 h, parasite screen 2 μg/mL, % growth, replicate 1, read-out: Pf_120h_%Growth_Rep1",82.2%
same,activity at 2 µg/mL,"[1]; 3D7, P. falciparum, 120 h, parasite screen 2 μg/mL, % growth, replicate 2, read-out: Pf_120h_%Growth_Rep2",135%
same,activity at 2 µg/mL,"[2]; 3D7, P. falciparum, 72 h, parasite screen 2 μg/mL, % growth, replicate 1, read-out: Pf_72h_%Growth_Rep1",87.6%
same,activity at 2 µg/mL,"[2]; 3D7, P. falciparum, 72 h, parasite screen 2 μg/mL, % growth, replicate 2, read-out: Pf_72h_%Growth_Rep2",70%
same,percent parasite growth at 2 µg/mL,[3]; [4],105%
same,percent parasite growth at 2 µg/mL,"[3]; T. gondii, parasite screen 2 μg/mL, % growth, replicate 2, read-out: Tg_72h_%Growth_Rep2",84.7%
O=C(N[C@H](CO)[C@H](O)c1ccc([N+](=O)[O-])cc1)C(Br)Br [Bromamphenicol],Pf_120h_%Growth_Rep1,[1]; [5],132.78%
same,Pf_120h_%Growth_Rep2,[1]; [6],78.55%
same,Pf_72h_%Growth_Rep1,[2]; [7],93.46%
same,Pf_72h_%Growth_Rep2,[2]; [8],85.21%
same,Tg_72h_%Growth_Rep1,[3]; [9],80.35%
same,Tg_72h_%Growth_Rep2,[3]; [10],93.07%
CC1(C)OC2CC(=O)OCC23C1CC(=O)C1(C)C3CCC2(C)C(c3ccoc3)OC(=O)C3OC321 (stereo not drawn) [BIA-L1755],Pf_120h_%Growth_Rep1,[1]; [11],93.20%
same,Pf_120h_%Growth_Rep2,[1]; [12],110.15%
same,Pf_72h_%Growth_Rep1,[2]; [13],83.85%
same,Pf_72h_%Growth_Rep2,[2]; [14],113.59%
same,Tg_72h_%Growth_Rep1,[3]; [15],135.94%
same,Tg_72h_%Growth_Rep2,[3]; [16],85.64%
CCC(=O)N[C@H](CO)[C@H](O)c1ccc([N+](=O)[O-])cc1 [Corynecin II],Pf_120h_%Growth_Rep1,[1]; [5],83.93%
same,Pf_120h_%Growth_Rep2,[1]; [6],86.26%
same,Pf_72h_%Growth_Rep1,[2]; [7],84.27%
same,Pf_72h_%Growth_Rep2,[2]; [8],79.27%
same,Tg_72h_%Growth_Rep1,[3]; [9],140.85%
same,Tg_72h_%Growth_Rep2,[3]; [10],90.01%
CC(=O)C1=C(O)[C@@H]2[C@H]3c4c[nH]c5cccc(c45)C[C@H]3C(C)(C)N2C1=O [Cyclopiazonic acid],activity at 2 µg/mL,"[1]; 3D7, 120 h, P. falciparum, 120 h, screen at 2 μg/mL, replicate 1, read-out: Pf_120h_%Growth_Rep1",14%
same,activity at 2 µg/mL,"[1]; 3D7, 120 h, P. falciparum, 120 h, screen at 2 μg/mL, replicate 2, read-out: Pf_120h_%Growth_Rep2",9.35%
same,activity at 2 µg/mL,"[2]; 3D7, 72 h, P. falciparum, 72 h, screen at 2 μg/mL, replicate 1, read-out: Pf_72h_%Growth_Rep1",12.6%
same,activity at 2 µg/mL,"[2]; 3D7, 72 h, P. falciparum, 72 h, screen at 2 μg/mL, replicate 2, read-out: Pf_72h_%Growth_Rep2",7.26%
same,percent parasite growth at 2 µg/mL,"[3]; T. gondii, screen at 2 μg/mL, replicate 1, read-out: Tg_72h_%Growth_Rep1",0.36%
same,percent parasite growth at 2 µg/mL,"[3]; T. gondii, screen at 2 μg/mL, replicate 2, read-out: Tg_72h_%Growth_Rep2",3.22%
CC[C@@H](C(=O)[C@@H](C)[C@@H](O)[C@H](C)[C@@H]1O[C@@H]([C@@H](CC)C(=O)O)CC[C@@H]1C)[C@H]1O[C@]2(C=C[C@@H](O)[C@]3(CC[C@@](C)([C@H]4CC[C@](O)(CC)[C@H](C)O4)O3)O2)[C@H](C)C[C@@H]1C [Salinomycin],Pf_120h_%Growth_Rep2,"[1]; P. falciparum, 120 h, parasite screen 2 μg/mL, % growth, replicate 2",1.02%
same,activity at 2 µg/mL,"[1]; 3D7, 120 h, P. falciparum, 120 h, parasite screen 2 μg/mL, % growth, replicate 1, read-out: Pf_120h_%Growth_Rep1",13.6%
same,Pf_72h_%Growth_Rep2,"[2]; P. falciparum, 72 h, parasite screen 2 μg/mL, % growth, replicate 2",-1.92%
same,activity at 2 µg/mL,"[2]; 3D7, 72 h, P. falciparum, 72 h, parasite screen 2 μg/mL, % growth, replicate 1, read-out: Pf_72h_%Growth_Rep1",3.76%
same,Tg_72h_%Growth_Rep2,"[3]; T. gondii, parasite screen 2 μg/mL, % growth, replicate 2",0.21%
same,percent parasite growth at 2 µg/mL,[3]; [4],2.46%
CC1CC=CC=CC=CC=CC(OC2OC(C)C(O)C(N)C2O)CC2OC(O)(CC(O)CC3OC3C=CC(=O)O1)CC(O)C2C(=O)O (stereo not drawn) [BIA-P1210],Pf_120h_%Growth_Rep1,"[1]; P. falciparum 3D7, 120 h, parasite screen at 2 μg/mL, % growth, replicate 1",62.24%
same,Pf_120h_%Growth_Rep2,"[1]; P. falciparum 3D7, 120 h, parasite screen at 2 μg/mL, % growth, replicate 2",79.36%
same,Pf_72h_%Growth_Rep1,"[2]; P. falciparum 3D7, 72 h, parasite screen at 2 μg/mL, % growth, replicate 1",82.66%
same,Pf_72h_%Growth_Rep2,"[2]; P. falciparum 3D7, 72 h, parasite screen at 2 μg/mL, % growth, replicate 2",61.24%
same,Tg_72h_%Growth_Rep1,"[3]; T. gondii, parasite screen at 2 μg/mL, % growth, replicate 1",91.98%
same,Tg_72h_%Growth_Rep2,"[3]; T. gondii, parasite screen at 2 μg/mL, % growth, replicate 2",100.38%
CN1C(=O)[C@]23CC4=CC=C[C@H](O)[C@H]4N2C(=O)[C@@]1(CO)SS3 [BIA-G1260],Pf_120h_%Growth_Rep1,[1]; [11],35.56%
same,Pf_120h_%Growth_Rep2,[1]; [12],25.95%
same,Pf_72h_%Growth_Rep1,[2]; [13],14.96%
same,Pf_72h_%Growth_Rep2,[2]; [14],8.82%
same,Tg_72h_%Growth_Rep1,[3]; [15],1.56%
same,Tg_72h_%Growth_Rep2,[3]; [16],0.82%
